{"source": "patent US12691124B2", "about": "“Methods of controlling and improving brain health” (ICAHN SCHOOL OF MEDICINE AT MOUNT SINAI, priority 2019, dated 2026)", "key": {"primary microglia": {"test_system": "primary microglia", "assay": "Gene expression in primary microglia treated with IBET858", "format": "cell-based, mouse", "procedure": "Primary Microglia Culture. Postnatal day 0 C57/Bl6 mice were decapitated in ice cold HBSS. The forebrain was rapidly dissected and treated as above in order to generate a single cell suspension. 60,000 cells per cm2 were seeded in vented, Poly-D-lysine coated flasks. Mixed glial cultures were maintained in DMEM containing 10% FBS and 1% penicillin/streptomycin for 3 weeks. After three weeks, microglia were isolated by shaking the mixed glial cultures for 4 hours at 360 rpm and re-plated at density on 100,0000 cells/cm2. Cultures were given 24 hours to settle before treatment. Cultures were pre-treated for 30 minutes with either DMSO (0.01%) or 1 uM IBET858. After 30 minutes, LPS (100 ng/ml) was added to the cultures. RNA was isolated with Trizol LS according to the manufacturer's recommendations after 1, 4 and 12 hours of LPS treatment.\nTo test the role of BET proteins in microglial gene expression, primary microglia cultures from mouse forebrain were treated with the brain-permeable BET inhibitors IBET858 (1 μM) for 1, 4, or 12 hours (FIG. 3A). Because loss of BET activity in macrophages negatively impacts differentiation and proliferation189, microglia identity genes were examined to understand if microglial lineage is regulated by BET proteins (FIG. 3C). Hexb, Fcrls, and Fcer1g expression was unaffected by IBET858 indicating microglial differentiation is unaffected."}, "microglia in vivo": {"test_system": "microglia in vivo", "assay": "TRAP of microglia from striatum and cerebellum after chronic IBET858", "parameters": "species or system mouse", "settings": "30 mg/kg i.p. once daily, two weeks", "procedure": "Cx3Cr1^CreErt2/+; Efl10a mice were orally gavaged 5 times with tamoxifen to induce the expression of gfp-labelled ribosome. Mice were intraperitoneally injected with IBET858 (30 mg/kg) or vehicle control once daily for two weeks. Four hours after either an acute (1 injection) or chronic (2 weeks) injection, mice were decapitated and used for TRAP.\nTo better understand how IBET858 affects microglia in their homeostatic state, translating ribosome affinity purification (TRAP) after chronic IBET858 administration was used. TRAP is ideal because it prevents the induction of immediate early and pro-inflammatory genes caused by other isolation protocols which can occlude homeostatic transcriptional profiles. Ayata et al., “Epigenetic Regulation of Brain Region-Specific Microglia Clearance Activity,” Nature Neuroscience 21:1049-1060 (2018), which is hereby incorporated by reference in its entirety. As observed in vitro, microglial lineage is maintained after chronic BET inhibition IBET858 as indicated by expression of Hexb, Fcrls, and Fcer1g in either the striatum or cerebellum (FIG. 4B). […] This is especially important because loss of these region-specific gene expression signatures is highly detrimental to brain function. Ayata et al., “Epigenetic Regulation of Brain Region-Specific Microglia Clearance Activity,” Nature Neuroscience 21:1049-1060 (2018), which is hereby incorporated by reference in its entirety. […] Therefore it is likely that BET inhibition can prevent or modulate pathological microglial activation in vivo as occurs during neurodegeneration."}, "primary cortical neurons": {"test_system": "primary cortical neurons", "assay": "Neuronal longevity in primary cortical neuron culture (LDH, propidium iodide, cleaved caspase 3)", "format": "cell-based, mouse", "source_text": "Primary Cortical Neuron Culture. Embryonic day 18 (E18) timed-pregnant female mice were anesthetized with CO2 and sacrificed by cervical dislocation. In a dissection hood, 24-26 embryos per experiment were collected through an incision of the mother's abdomen, taken out of the amniotic sacs and decapitated in ice cold Hank's Balanced Salt Solution (HBSS). Using fine scissors and forceps, brains were rapidly dissected and the cortex cleared from meninges and isolated under a dissection microscope. Cortices were collected in ice cold HBSS and kept on ice until all embryos had been dissected. In a tissue culture hood, HBSS was removed and the cortex tissue digested by 0.25% Trypsin-EDTA for 12 minutes at 37° C., followed by DNase1 treatment for 10 minutes at 37° C. The tissue was dissociated by serial trituration with a 25 ml serological pipette, followed by trituration with 10 ml and 5 ml serological pipettes. Cell suspension was washed once with DMEM medium, supplemented with 10% FBS and 1% penicillin/streptomycin and passed through a […] cell strainer before counted on a hemocytometer. Single cells were seeded on poly-D-lysine (0.1 mg ml-1) coated wells at a density of 1×10^6 cells per well on a 12-well plate. Cells were grown in Neurobasal medium, complemented with B27 supplement, N2 supplement, and 0.5 mM L-glutamine and maintained at 37° C. in 5% CO2 for 1 week. Cultures were treated with DMSO (0.2%), I-BET858 (1 μM, 0.2% DMSO), BDNF (50 ng/ml), or BDNF+I-BET858 for 2 and 12 h on day 7 in vitro. Cultures were washed with phosphate-buffered saline (PBS) on ice and processed for RNA isolation using TRIzol/Chloroform extraction.\nLDH Assay. LDH activity was measured using the Pierce LDH Cytotoxicity Assay Kit. Culture media was incubated with an equal volume of LDH master mix and incubated for 30 minutes at room temperature in the dark. After, the same volume of stop reagent was added and the absorbance was measured at 490 and 680 nm. Maximum LDH measurements were obtained by adding lysis buffer to release the total amount of LDH in the sample. LDH release is calculated as a percent of the maximum.\nPropidium Iodide Assay. Propidium iodide (1 mg/ml, Life Technologies #P3566) was added to each culture well at a final concentration of 0.5 μg/ml. Cultures were incubated for 30 minutes at 37 degrees then washed with PBS. Cells were then fixed with 4% paraformaldehyde in PBS for 15 minutes at room temperature. After fixation, cells were washed with PBS and then mounted using mounting media containing DAPI.\nIn order to understand the effect of chronic BET inhibition on neuronal survival, primary cortical mouse neurons were cultured in the presence or absence of the brain permeable BET inhibitor IBET858 (1 μM). To quantify cell death over time, the levels of lactate dehydrogenase (LDH) were measured in culture media which is presumably released during cell death as the membranes become permeable. […] The observed decrease in LDH activity after BET inhibition occurs in a dose-dependent manner. LDH activity, which is an indirect measure of cell death, may be affected by other factors such as changes in metabolism or expression of the LDH genes. Therefore in order to confirm these findings, propidium iodide (PI) staining was used to directly quantify the number of dead neurons over time. This membrane impermeable dye increases in fluorescence 20-30 fold after intercalating DNA265. […] To give context to the magnitude of this effect on survival, this experiment was repeated with a direct comparison to the mTOR inhibitor, rapamycin (20 nM)."}}}
{"molecule": "CC(=O)N1c2ccc(-c3ccc(CN4CCCCC4)cc3)cc2[C@H](Nc2ccccc2)CC1C", "note": "(stereo in doubt) [IBET858]", "values": [{"measurement": "immune response and cell activation pathway genes", "setting": "primary microglia; 1 μM", "result": "suppresses"}, {"measurement": "genes significantly down-regulated", "setting": "primary microglia; 1 μM IBET858, 4 hours", "result": 1245, "unit": "genes"}, {"measurement": "genes significantly down-regulated", "setting": "primary microglia; 1 μM IBET858, 12 hours", "result": 1175, "unit": "genes"}, {"measurement": "microglia identity gene expression (Hexb, Fcrls, Fcer1g)", "setting": "primary microglia; 1 μM, 1, 4 or 12 hours", "result": "unaffected"}, {"measurement": "phagocytosis gene expression", "setting": "primary microglia; 1 μM, all time points", "result": "also unaffected"}, {"measurement": "microglial lineage (Hexb, Fcrls, Fcer1g expression) in striatum or cerebellum", "setting": "microglia in vivo", "result": "maintained"}, {"measurement": "regional microglial transcriptomic heterogeneity", "setting": "microglia in vivo", "result": "also unaffected"}, {"measurement": "striatal microglial inflammatory genes (Ccr5, Cd180, Gpr84, Wdfy1)", "setting": "microglia in vivo", "result": "suppressed"}, {"measurement": "dose dependence of decrease in LDH activity", "setting": "primary cortical neurons", "result": "dose-dependent"}, {"measurement": "neuron survival over time, propidium iodide assay", "setting": "primary cortical neurons; 1 μM", "result": "survive significantly longer than control"}, {"measurement": "number of cells positive for cleaved caspase 3", "setting": "primary cortical neurons; 1 μM", "result": "decreased"}, {"measurement": "LDH activity in culture media over time", "setting": "primary cortical neurons; 1 μM, from day 16 in vitro", "result": "significantly less LDH activity"}, {"measurement": "neuronal lifespan, IBET858 compared with rapamycin", "setting": "primary cortical neurons; IBET858 1 μM, rapamycin 20 nM", "result": "to the same extent as rapamycin if not more"}]}
